Data on eight compounds can be found in US20240391923A1, “METHIONINE ADENOSYLTRANSFERASE 2A INHIBITOR FOR TREATING MTAP DELETION-TYPE CANCER” (SUZHOU GENHOUSE BIO CO., LTD., priority 2022, published 2024).

Data set [1] has as its system SDMA in HCT116-MTAP-knockout cell line. As to the kind of experiment: Cell symmetric dimethylarginine (SDMA) test, In-cell Western, HCT116-MTAP-knockout. Conditions: Homo sapiens, 96 h. In kind it is cell-based.
Data set [2] relates to SDMA in human colon cancer cell line HCT116. The data set can be described thus: Cell symmetric dimethylarginine (SDMA) test, In-cell Western, HCT116 (MTAP wild-type). In kind it is cell-based. The conditions noted are these: Homo sapiens, HCT-116, 96 h. Put shortly: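 SDMA level, an indirect readout of cellular MAT2A inhibition, measured by In-cell Western as background-subtracted 800/700 nm signal against DRAQ5. Cells exposed 4 days to six 1:4-diluted doses from 6 μM; inhibition relative to DMSO, IC50 from sigmoidal fit.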

Data set [3] relates to HCT116-MTAP-knockout (−/−) cell strain. The data set can be described thus: Tumor cell proliferation inhibition assay (CellTiter-Glo), HCT116-MTAP-knockout (-/-). Conditions: Homo sapiens, 120 h, 5-day treatment. In kind it is cell-based. In outline:
(§1)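 Growth inhibition read as ATP content (CellTiter-Glo) after 5-day compound exposure at 37 °C, 5% CO2. Dosing began 24 h post-seeding, ten 3-fold dilutions starting at 10 μM, alongside a DMSO-treated group.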
A general note: ATP-based viability assays read luminescence as a measure of living cells.

Another data set concerns DOHH-2 cell strain. As to the kind of experiment: Tumor cell proliferation inhibition assay (CellTiter-Glo), DOHH-2. In kind it is cell-based. The conditions noted are these: Homo sapiens, 120 h, DOHH-2 cells, 5-day treatment. Here is the method:
After the HCT116-MTAP-knockout (−/−) cell strain, the HCT116-MTAP wild-type(+/+)-cell strain, the DOHH-2 cell strain, or the Hut-78 cell strain was treated with the test compound for 5 days, the ATP level was measured using a CellTiter-Glo kit of Promega to evaluate the inhibition of the test compound against the growth of the tumor cell strain.
In the present application, the HCT116-MTAP-knockout (−/−) cell strain, the HCT116-MTAP wild-type (+/+)-cell strain, the DOHH-2 cell strain, or the Hut-78 cell strain was seeded into a 96-well cell culture plate at an appropriate cell density. After 24 h, the cells were treated using the test compounds diluted 1:3 fold at the highest concentration of 10 μM for 10 gradients, and a DMSO treatment group was set up separately. The cells were cultured in a 37° C./5% CO2 incubator for 5 days.

A short description of data set [4]: Pharmacokinetic test in rats (IV and PO). In kind it is in vivo. The conditions noted are these: rat, plasma, SD rats; for half-life: read-out: T½ (converted).
Data set [5] has as its target MAT2A recombinant protein (Homo sapiens, UniProt P31153). As to the kind of experiment: MAT2A inhibitory activity (malachite green colorimetric enzyme assay). The class given is biochemical. In outline: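 Compounds tested over 10 points, 3-fold dilutions, top final concentration 1000 nM. Enzyme reaction: MAT2A, L-methionine, ATP, room temperature, 60 min, in HEPES pH 7.5 buffer with KCl, MgCl2 and DTT; inorganic phosphate read colorimetrically (malachite green, A630). Inhibition vs log concentration fitted for IC50.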

Data set [6] concerns HCT116-MTAP wild-type (+/+)-cell strain. The data set can be described thus: Tumor cell proliferation inhibition assay (CellTiter-Glo), HCT116-MTAP wild-type (+/+). The class given is cell-based. The conditions noted are these: Homo sapiens, 120 h, 5-day treatment. Put shortly:
as §1

For a further data set, the system named is Hut-78 cell strain. The data set can be described thus: Tumor cell proliferation inhibition assay (CellTiter-Glo), Hut-78. The class given is cell-based. Conditions: Homo sapiens, HuT78, 120 h, Hut-78 cells, 5-day treatment. Put shortly:
as §1

The mark [7] stands for this setting: IC50 score class, read-out: Cell 96 h SDMA Inhibition (HCT116-MTAP−/−) (score).
The mark [8] stands for this setting: IC50 score class, read-out: Cell 96 h SDMA Inhibition (HCT116-MTAP+/+) (score).
Setting [9] is: read-out: Cell 96 h SDMA inhibition (HCT116-MTAP+/+).
[10] abbreviates: HCT116-MTAP-knockout (−/−) cells, IC50 score, read-out: Tumor cell 5-day relative growth inhibition (HCT116-MTAP−/−) (nM), score.
[11] abbreviates: HCT116-MTAP-knockout (−/−) cells, IC50 value, read-out: Tumor cell 5-day relative growth inhibition (HCT116-MTAP−/−).
The mark [12] stands for this setting: IC50 score, read-out: Tumor cell 5-day relative growth inhibition (DOHH-2) (nM), score.
Where [13] appears, read: IC50 value, read-out: Tumor cell 5-day relative growth inhibition (DOHH-2).
Where [14] appears, read: IC50 score class, read-out: MAT2A Inhibition (score).
The mark [15] stands for this setting: read-out: Cell 96 h SDMA Inhibition (HCT116-MTAP−/−).
Setting [16] is: HCT116-MTAP wild-type (+/+) cells, IC50 score, read-out: Tumor cell 5-day relative growth inhibition (HCT116-MTAP+/+) (nM), score.
Where [17] appears, read: HCT116-MTAP wild-type (+/+) cells, IC50 value, read-out: Tumor cell 5-day relative growth inhibition (HCT116-MTAP+/+).
[18] abbreviates: IC50 score, read-out: Tumor cell 5-day relative growth inhibition (Hut-78) (nM), score.
Setting [19] is: IC50 value, read-out: Tumor cell 5-day relative growth inhibition (Hut-78).

Structures are written as SMILES. Like-named read-outs stand apart in the source and are kept apart here.

Sequence of MAT2A recombinant protein (P31153 whole entry): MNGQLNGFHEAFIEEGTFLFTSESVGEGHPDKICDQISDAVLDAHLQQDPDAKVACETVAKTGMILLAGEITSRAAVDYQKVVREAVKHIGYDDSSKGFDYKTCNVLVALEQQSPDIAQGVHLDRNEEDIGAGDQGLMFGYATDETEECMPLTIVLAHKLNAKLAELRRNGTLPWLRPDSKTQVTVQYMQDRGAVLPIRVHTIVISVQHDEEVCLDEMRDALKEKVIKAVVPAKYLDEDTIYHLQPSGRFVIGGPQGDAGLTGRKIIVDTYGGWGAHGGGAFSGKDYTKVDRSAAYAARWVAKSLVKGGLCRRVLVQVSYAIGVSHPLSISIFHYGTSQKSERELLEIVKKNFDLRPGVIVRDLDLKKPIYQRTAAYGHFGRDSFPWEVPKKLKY

As usually defined, the AUC is concentration integrated over time. As for `CCn1cc2c(n1)c(=O)n(-c1cccnc1)c1cc(Cl)ccc21` [Compound B3], the IC50 in data set [1] (setting [7]) was < 0.2 µM; in data set [2] (setting [8]), > 3 µM; in data set [2] (setting [9]) it was 4.28 µM; in data set [3] (setting [10]) it was < 500 nM; in data set [3] (setting [11]), 228 nM; in the data set with DOHH-2 cell strain (setting [12]), 500 to 2000 nM. Moreover, the IC50 in the data set on DOHH-2 cell strain (setting [13]) was 940 nM. The AUC in data set [4] (IV 1 mg/kg) was 7.81 µM·h; in data set [4] (PO 5 mg/kg), 26 µM·h. Moreover, the bioavailability in data set [4] (IV 1 mg/kg, PO 5 mg/kg) turned out to be 67%. Further, the results for the half-life in data set [4] (IV 1 mg/kg) and in data set [4] (PO 5 mg/kg) were 0.08 h and 0.97 h, respectively.

For `CCn1cc2c(n1)c(=O)n(-c1cccc(F)c1)c1cc(Cl)ccc21` [Compound B4], the IC50 in data set [5] (setting [14]) was < 0.1 µM; in data set [5] (read-out: MAT2A Inhibition) it was 0.0388 µM; in data set [1] (setting [7]), 0.2 to 1 µM; in data set [1] (setting [15]), 0.782 µM; in data set [2] (setting [8]), > 3 µM; in data set [2] (setting [9]), 9.3 µM. Moreover, the IC50 with DOHH-2 cell strain (setting [12]) was ≥ 2000 nM. In addition, the AUC in data set [4] (IV 1 mg/kg) amounted to 2.5 µM·h; in data set [4] (PO 5 mg/kg), 7.95 µM·h. This compound also gave a clearance in data set [4] (IV 1 mg/kg) of 21.7 mL/min/kg. Further, the bioavailability in data set [4] (IV 1 mg/kg, PO 5 mg/kg) was found to be 68%. The half-life was 0.62 h in data set [4] (IV 1 mg/kg) and 2.1 h in data set [4] (PO 5 mg/kg).

Take `COc1ccc(Cn2cc3c(n2)c(=O)n(-c2cccnc2)c2cc(Cl)ccc32)cc1` [Compound B28]: the IC50 in data set [1] (setting [7]) was < 0.2 µM; in data set [1] (setting [15]), 0.0305 µM; in data set [2] (setting [8]), 0.2 to 1 µM; in data set [2] (setting [9]) it was 0.342 µM; in data set [3] (setting [10]) it was < 500 nM; in data set [3] (setting [11]), 75 nM. Besides, the IC50 in data set [6] (setting [16]) was < 500 nM; in data set [6] (setting [17]) it was 279 nM; in the data set on DOHH-2 cell strain (setting [12]), < 500 nM; in the data set on DOHH-2 cell strain (setting [13]) it was 444 nM. The AUC in data set [4] (IV 1 mg/kg) and in data set [4] (PO 5 mg/kg) was 7.6 µM·h in each case. The same compound showed a clearance in data set [4] (IV 1 mg/kg) of 16 mL/min/kg. The bioavailability in data set [4] (IV 1 mg/kg, PO 5 mg/kg) is 60%. Besides, the half-life in data set [4] (IV 1 mg/kg) is 1.7 h; in data set [4] (PO 5 mg/kg), 3.3 h.

With `Cn1ccc(Cn2cc3c(n2)c(=O)n(-c2cccnc2)c2cc(Cl)ccc32)n1` [Compound B48], the IC50 in data set [5] (setting [14]) is < 0.1 µM; in data set [5] (read-out: MAT2A Inhibition), 0.0293 µM; in data set [1] (setting [7]) it was < 0.2 µM; in data set [1] (setting [15]), 0.0635 µM; in data set [2] (setting [8]), > 3 µM; in data set [2] (setting [9]), 5.14 µM. Further, the IC50 in data set [3] (setting [10]) was < 500 nM; in data set [3] (setting [11]) it was 119 nM; in data set [6] (setting [16]) it was 500 to 2000 nM; in data set [6] (setting [17]) it was 1730 nM; in the data set on DOHH-2 cell strain (setting [12]), 500 to 2000 nM; in the data set on DOHH-2 cell strain (setting [13]) it was 880 nM. The IC50 was < 500 nM with Hut-78 cell strain (setting [18]) and 81.8 nM in the data set on Hut-78 cell strain (setting [19]).

As for `Cn1cc2c(n1)c(=O)n(-c1ccc3cn[nH]c3c1)c1cc(Cl)ccc21` [Compound B57], the IC50 is < 0.1 µM in data set [5] (setting [14]); 0.0543 µM in data set [5] (read-out: MAT2A Inhibition); 0.2 to 1 µM in data set [1] (setting [7]); 0.579 µM in data set [1] (setting [15]); > 3 µM in data set [2] (setting [8]); > 3 µM in data set [2] (setting [9]). The IC50 with DOHH-2 cell strain (setting [12]) was ≥ 2000 nM; in the data set with DOHH-2 cell strain (setting [13]), 2040 nM; with Hut-78 cell strain (setting [18]) it was ≥ 2000 nM; in the data set with Hut-78 cell strain (setting [19]) it was 2130 nM.

For `Cc1ncccc1-n1c(=O)c2nn(C)cc2c2ccc(OC(F)(F)F)cc21` [Compound B77], the IC50 in data set [5] (setting [14]) is < 0.1 µM; in data set [5] (read-out: MAT2A Inhibition), 0.0431 µM; in data set [1] (setting [7]), < 0.2 µM; in data set [1] (setting [15]), 0.0328 µM; in data set [2] (setting [8]), 0.2 to 1 µM; in data set [2] (setting [9]), 0.396 µM. The IC50 in the data set with DOHH-2 cell strain (setting [12]) was < 500 nM; with DOHH-2 cell strain (setting [13]), 390 nM; in the data set on Hut-78 cell strain (setting [18]), < 500 nM; with Hut-78 cell strain (setting [19]) it was 87.8 nM.

`Cn1cc2c(n1)c(=O)n(-c1cccc(O)c1)c1cc(C(F)(F)F)ccc21` [Compound B150]: the IC50 was < 0.1 µM in data set [5] (setting [14]); 0.0278 µM in data set [5] (read-out: MAT2A Inhibition); < 0.2 µM in data set [1] (setting [7]); 0.0543 µM in data set [1] (setting [15]); 0.2 to 1 µM in data set [2] (setting [8]); 0.861 µM in data set [2] (setting [9]). Also, the IC50 is 500 to 2000 nM with DOHH-2 cell strain (setting [12]), 654 nM in the data set on DOHH-2 cell strain (setting [13]), < 500 nM with Hut-78 cell strain (setting [18]) and 140 nM with Hut-78 cell strain (setting [19]).

`O=c1c2n[nH]cc2c2cc(F)c(Cl)cc2n1-c1cccnc1C1CC1` [Compound B425]: the IC50 was < 0.1 µM in data set [5] (setting [14]); 0.006 µM in data set [5] (read-out: MAT2A Inhibition); < 0.2 µM in data set [1] (setting [7]); 0.0043 µM in data set [1] (setting [15]); > 3 µM in data set [2] (setting [8]); > 10 µM in data set [2] (setting [9]). Moreover, the IC50 in data set [3] (HCT116-MTAP−/− cells, IC50 class score, read-out: Tumor cell 5-day relative growth inhibition (HCT116-MTAP−/−) (nM), score) was < 500 nM; in data set [3] (HCT116-MTAP−/− cells, read-out: Tumor cell 5-day relative growth inhibition (HCT116-MTAP−/−)), 260 nM; in data set [6] (HCT116-MTAP+/+ cells, IC50 class score, read-out: Tumor cell 5-day relative growth inhibition (HCT116-MTAP+/+) (nM), score), ≥ 2000 nM; in data set [6] (HCT116-MTAP+/+ cells, read-out: Tumor cell 5-day relative growth inhibition (HCT116-MTAP+/+)) it was > 10000 nM. Moreover, the figures for the AUC in data set [4] (IV 1 mg/kg) and in data set [4] (PO 5 mg/kg) were 21 µM·h and 128 µM·h, respectively. The clearance in data set [4] (IV 1 mg/kg) was 2 mL/min/kg. For the same compound, in data set [4] (IV 1 mg/kg, PO 5 mg/kg), the bioavailability was found to be 116%. The half-life in data set [4] (IV 1 mg/kg) was 14 h; in data set [4] (PO 5 mg/kg), 11.6 h.
